Assay results from article PMC10804667, “Molecular mechanism of Fe^3+ binding inhibition to Vibrio metschnikovii ferric ion‐binding protein, FbpA, by rosmarinic acid and its hydrolysate, danshensu” (Protein Science : A Publication of the Protein Society, 2024).
In brackets after ≈: the same amount, converted by molar mass. Several values for one entry are separate records, joined by “and”; a condition that tells them apart may be missing. Identical values can stand only once.

Assays:
[1] = Fe3+ reduction capacity (o-phenanthroline assay); conditions: 40 μM Fe^3+; concentration giving 20 μM Fe^2+; read-out: EC50 for reduction from Fe^3+ to Fe^2+
Experimental: Solutions containing 40 μM FeCl3 and varying concentrations of RA, DSS, and CA (0, 0.625, 1.25, 5, 10, 20, and 40 μM) were prepared and analyzed. Each sample was combined with 0.25% o‐phenanthroline (2 mL) followed by a pH adjustment to 3.5 with HCl, and Milli‐Q water was added to reach a final volume of 25 mL. After incubation at room temperature for 1 h, the absorbance at 510 nm was measured using a microplate spectrophotometer (Benchmark Plus, Bio‐Rad), and the concentration of Fe^2+ was determined using FeSO4·7H2O as a standard. The Fe^2+ concentrations were plotted and fitted as a function of Log2(inhibitor concentration) using GraphPad Prism (version: 9.5.0) software with a nonlinear regression model. The half maximal effective concentration (EC50) was calculated by reading the inhibitor concentrations at an Fe^2+ concentration of 20 μM.

VmFbpA [2] = test: Isothermal titration calorimetry (ITC) of ligand binding to VmFbpA; set-up: species or system Vibrio metschnikovii; conditions: 298 K, 20 mM HEPES pH 8.0, 50 mM NaCl, apo VmFbpA, read-out: K D for VmFbpA
Experimental: The 6× His‐free apo VmFbpA samples were dialyzed overnight at 4°C against dialysis buffer (20 mM pH 8.0 HEPES, 50 mM NaCl). ITC was performed using MicroCal iTC200 (Malvern). RA, DSS, or CA was dissolved in dialysis buffer at a final concentration of 400 μM and injected 20 times by a motor‐driven syringe into 200 μL of 20 μM Apo VmFbpA. The first injection volume was 0.1 μL and subsequent injection volumes were 2.0 μL. The reference cell of the microcalorimeter was filled with 200 μL of the corresponding dialysis buffer. The titrations were performed at room temperature. The data were analyzed using MicroCal LLC iTC 200 for Windows (Malvern). All experiments were repeated at least twice to ensure reproducibility.

VmFbpA [3] = test: 6×His-based VmFbpA inhibition assay (pull-down assay) of Fe3+ binding; assay type: biochemical, Vibrio metschnikovii; conditions: 60 min at 4°C, 20 mM Tris–HCl pH 8.0, 50 mM NaHCO3, 100 mM NaCl, read-out: IC50 to VmFbpA (inhibition of Fe^3+ binding)
Experimental: (§1) Fe^3+‐bound His6‐VmFbpA (30 μM, 200 μL) was loaded onto a 40 μL Ni‐NTA slurry resin (bed volume: 20 μL) in a Micro Bio‐Spin column (Bio‐Rad) and incubated at 4°C for 30 min. The column was extensively washed with wash buffer (20 mM Tris–HCl, pH 8.0, 50 mM NaHCO3, 100 mM NaCl). Various concentrations of RA, DSS, or CA (200 μL) were added to the column and incubated for 60 min at 4°C in a solvent consisting of 20 mM Tris–HCl, pH 8.0, 50 mM NaHCO3, and 100 mM NaCl. The column was washed extensively with wash buffer and eluted with 100 μL of elution buffer (wash buffer containing 250 mM imidazole). The Fe concentration of the eluent was determined using ICP‐MS as reported previously (Lu et al. [2019]) and adjusted to the protein concentration, which was measured using a Pierce 660 nm Protein Assay. Samples without FeCl3 were used as a negative control group and samples lacking inhibitors were used as a positive control group. All buffers contained 0.3% DMSO to solubilize the inhibitors, unless otherwise indicated.
(§2) The protein inhibitory rates were calculated using the following formula: Inhibitory rates%=1−Conc.Fesample−Conc.Feapo/Conc.Feholo−Conc.Feapo×100%
(§3) The inhibitory rate was plotted and fitted as a function of inhibitor concentration by a logarithmic function model using GraphPad Prism (version: 9.5.0) software. The 50% inhibitory concentration (IC50) was calculated by reading the concentration at the inhibitory rate of 50%.

V. metschnikovii = test: Bacteriostatic assay; assay type: cell-based; conditions: Vibrio metschnikovii, 20 h, NB medium, 37°C, 20 h culture; concentration at inhibitory rate of 95%
Experimental: A pre‐culture of V. metschnikovii was prepared in 5 mL of NB medium (3.0 g/L meat extract, 5.0 g/L meat peptone, 10.0 g/L NaCl, pH 7.0) at 37°C. When the OD600 reached ~0.6, 2 μL of the pre‐culture was inoculated into 200 μL of NB medium for the bacteriostatic assay. The culture was performed at 37°C in a 96‐well plate. Bacteriostatic agents (RA, DSS, and CA) were tested at a range of concentrations (5000 μM to 39 μM). The cultures without bacteriostatic agents were used as a natural growth control and the cultures without bacteria were used as the respective sterile controls (Blanks). The OD600 was measured using a microplate spectrophotometer (Benchmark Plus, Bio‐Rad).
The antibacterial inhibitory rates were calculated based on the following formula after culture for 20 h: Inhibitory rates%=1−OD600,NG−OD600,BKs−OD600,Is−OD600,BKs/OD600,NG−OD600,BKs×100%,
where NG, Is, and BKs refer to the natural growth control group, experimental groups with inhibitors, and their respective sterile control groups, respectively.
The inhibitory rate was plotted and fitted as a function of Log2(inhibitor concentration) using GraphPad Prism (version: 9.5.0) software with a nonlinear regression model. The MIC was calculated by reading the concentrations at the inhibitory rate of 95%.

(UniProt Z9CIZ5JT55) = test: 6×His-based VmFbpA inhibition assay (pull-down assay) of Fe3+ binding; assay type: biochemical, Vibrio metschnikovii; conditions: 60 min at 4°C, 20 mM Tris–HCl pH 8.0, 50 mM NaHCO3, 100 mM NaCl, read-out: IC50 to VmFbpA (inhibition of Fe^3+ binding)
Experimental: as §1, §2, §3

[4] = Stability of RA in gel filtration buffer by RPC; assay type: physicochemical
Experimental: The stability of RA (1 mg/mL) in gel filtration buffer (20 mM Tris–HCl, pH 8.0, and 100 mM NaCl) at 20°C was assessed in the presence and absence of VmFbpA (molar ratio: 1 to 1) by the same RPC analysis. Sampling was performed every week and diluted 100 times with buffer before injecting into a RESOURCE RPC column. The other conditions are the same as described above.

[5] = set-up: method as in Sik et al. [2021]; conditions: after 3 months of storage; ref Sik et al. [2021]; cited from earlier work
Escherichia coli = test system: Escherichia coli; set-up: method as in Lu et al. [2021]; conditions: 1000 μM; ref Lu et al. [2021]; cited from earlier work
V. metchnikovii = test system: V. metchnikovii; set-up: method as in Lu et al. [2021]; conditions: 1000 μM; ref Lu et al. [2021]; cited from earlier work

SMILES	EC50 [1]	Kd (VmFbpA [2])	IC50 (VmFbpA [3])	MIC (V. metschnikovii)	IC50 ((UniProt Z9CIZ5JT55))	degradation of RA ([4]; 20 mM Tris–HCl pH 8.0, 100 mM NaCl, stored at 20°C for 1 week)	degradation rate of RA ([4]; 20 mM Tris–HCl pH 8.0, 100 mM NaCl, stored at 20°C for 2 weeks)	change of degradation rate of RA in the presence of VmFbpA ([4]; VmFbpA added at molar ratio 1:1, gel filtration buffer)	hydrolysis rate of RA aqueous solution [5]	effect on growth of Escherichia coli (Escherichia coli)	effect on growth of V. metchnikovii (V. metchnikovii)
O=C(O)/C=C/c1ccc(O)c(O)c1 [CA, caffeic acid]	31 ± 1 µM	18 µM and ~18 µM	6000 ± 2000 µM	> 3000 µM	–	–	–	–	–	–	–
O=C(/C=C/c1ccc(O)c(O)c1)O[C@H](Cc1ccc(O)c(O)c1)C(=O)O [RA, Rosmarinic acid]	14.4 ± 0.1 µM	1.1 ± 0.5 µM	–	440 ± 70 µM (≈ 159 µg/mL)	2200 ± 300 µM	5%	~ 30%	did not change significantly	exceeded 10%	did not affect the growth	significantly reduced the growth
O=C(O)[C@H](O)Cc1ccc(O)c(O)c1 [DSS, danshensu]	23 ± 1 µM	0.9 µM and ~0.9 µM	4000 ± 1000 µM	–	–	–	–	–	–	–	–
